Measured values taken from the supplement of paper PMC8882468.

Columns and labels:
Test in all cases: CTG-3D luminescence at 96 h relative to day-0 seeding control (ratio to day 0); higher = more growth / less cytotoxicity; PDxO 3D drug screen, 96 h, CTG-3D normalised to day-0 seeding control.
[1] = system: HCI-001 (organoid from a triple-negative breast cancer xenograft)
[2] = system: HCI-002 (organoid from a triple-negative breast cancer xenograft)
[3] = system: HCI-003.E2 (organoid from an ER-positive breast cancer xenograft)
[4] = system: HCI-019 (organoid from a triple-negative breast cancer xenograft)
[5] = system: HCI-024 (organoid from a breast cancer xenograft)

CC(C)(C(=O)NCC(F)(F)C(F)(F)F)C(=O)N[C@@H]1C(=O)Nc2ccccc2-c2ccccc21
CTG-3D luminescence at 96 h
Details	12.5 pM	0.00025 µM	0.005 µM	0.1 µM	1 µM	10 µM	100 µM	625 fM
[1], days in culture: 240	1.46	1.17	0.87	0.976	1.16	0.943	1.23	1.67
[1], days in culture: 260	2.5	1.03	1.58	1.23	1.44	1.29	1.15	2.09
[1], days in culture: 269	1.46	1.61	1.38	1.81	1.67	2.38	1.78	1.58
[1], days in culture: 327	1.38	1.27	1.54	1.77	1.29	1.04	1.38	1.83
[1], days in culture: 346	1.54	1.31	1.17	1.11	1.26	1.31	1.57	1.29
[1], days in culture: 364	1.49	1.25	1.38	1.09	1.14	1.29	0.937	1.4
[2], days in culture: 62	2.81	2.3	2.94	2.74	2.12	3.01	2.47	2.63
[2], days in culture: 82	3.56	2.71	2.34	2.94	2.61	3.03	1.34	3.05
[2], days in culture: 91	4.71	3.94	3.16	3.91	2.99	3.51	2.15	4.61
[2], days in culture: 191	2.82	2.44	2.45	2.13	2.48	2.26	1.81	2.66
[2], days in culture: 209	2.45	2.57	2.38	2.22	2.25	1.91	1.55	2.4
[2], days in culture: 227	5.87	5.33	5.89	5.45	4.95	5.63	2.44	6.16
[4], days in culture: 110	1.83	1.52	1.54	2.23	1.47	2.09	1.37	1.84
[4], days in culture: 131	2.53	3.17	3.05	3.09	2.31	3.61	2.28	4.34
[4], days in culture: 152	3.04	2.87	3.36	1.92	2.19	2.41	1.12	1.98
[5], days in culture: 105	1.79	1.33	0.962	1.85	1.67	2.09	1.22	1.91
[5], days in culture: 122	2.28	1.94	1.8	1.67	1.64	2.55	1.21	3.41
[5], days in culture: 163	2.14	2.11	1.38	2.27	2.12	2.52	1.71	2.36

[3]
Details	CTG-3D luminescence at 96 h
12.5 pM	2.16
0.00025 µM	2.26
0.005 µM	2.01
0.1 µM	2.28
1 µM	1.96
10 µM	2.11
100 µM	0.942
625 fM	1.86

CCN(c1cc(C#CCN2CCOCC2)cc(C(=O)NCc2c(C)cc(C)[nH]c2=O)c1C)[C@H]1CC[C@H](N(C)CCOC)CC1
CTG-3D luminescence at 96 h
Details	12.5 pM	0.00025 µM	0.005 µM	0.1 µM	1 µM	10 µM	100 µM	625 fM
[1], days in culture: 240	1.66	1.2	1.34	1.12	1.48	1.35	1.6	1.15
[1], days in culture: 260	2.3	1.19	2.11	1.83	1.85	1.89	1.19	1.77
[1], days in culture: 269	1.6	1.57	1.22	1.27	1.24	1.91	1.29	1.58
[1], days in culture: 327	2.1	1.96	2.09	1.94	1.79	1.53	2.14	2.05
[1], days in culture: 346	1.71	1.33	1.21	1.4	1.5	1.62	1	1.32
[1], days in culture: 364	1.74	1.34	1.76	1.19	1.17	1.85	1.41	1.88
[2], days in culture: 62	3.56	3.06	4.04	3.68	3.25	3.56	3.84	3.54
[2], days in culture: 82	3.83	3.88	2.98	3.77	3.86	3.46	2.82	3.6
[2], days in culture: 91	3.18	2.62	2.38	2.44	2.39	2.58	2.11	3.17
[2], days in culture: 191	3.6	3.27	3.28	3.84	3.37	3.62	3.54	3.51
[2], days in culture: 209	2.93	3.11	2.59	2.63	2.93	2.64	2.79	2.8
[2], days in culture: 227	4.96	4.84	4.63	5.11	4.67	5.77	4.2	5.52
[4], days in culture: 110	2.05	1.49	1.58	2.08	1.81	2.75	2.01	2.28
[4], days in culture: 131	2.63	3.96	3.07	3.21	1.98	2.33	0.501	3.23
[4], days in culture: 152	2.5	4.04	2.16	1.89	2.77	1.9	0.188	2.36
[5], days in culture: 105	1.44	1.62	1.27	1.53	1.77	2.22	1.53	1.42
[5], days in culture: 122	1.71	2.29	2.04	1.85	2.34	3.46	1.5	2.18
[5], days in culture: 163	1.65	2.26	1.77	2.62	2.29	2.35	1.91	1.9

[3]
Details	CTG-3D luminescence at 96 h
12.5 pM	1.84
0.00025 µM	2.12
0.005 µM	1.71
0.1 µM	1.96
1 µM	1.74
10 µM	1.89
100 µM	0.658
625 fM	1.65
